Data set [1] has as its system infections caused by Gram positive bacteria and Pseudomonas aeruginosa (chronic). Particulars: background statement; cited from earlier work.
Data set [2] relates to E. coli KC-14. In words: Therapeutic effect on infection in mice, E. coli KC-14. The data set is classed as in vivo, ddY-strain male mice. Particulars: Escherichia coli, KC14, po, 168 h. The protocol: (§1) Test Method: Escherichia coli KC-14 and Psudomonas aeruginosa E-2 were suspended in 4% mucin and 0.25 ml of it was inoculated into peritoneal cavity of ddY-strain male mice (body weight about 20 g; 4 weeks age; 10 mice per group). The numbers of the inoculated bacteria were 5.1×10^4 CFU/mouse and 7.5×10^4 CFU/mouse for E. coli and P. aeruginosa, respectively. The drug was administered orally once 2 hours after the infection of the bacteria and, out of the survival rate after one week, the ED50 values were calculated by a Behrens-Karber method. As controls, ofloxacin and enoxacin were used.
(§2) Bacteria used for calculating ED50 were E. coli KC-14 for (1) and P. aeruginosa E-2 for (2). The compounds (1) to (7) of the present invention designated in Table 2 are as follows.

Data set [3] has as its system E. coli NIHJ JC-2. The data set is described as follows: MIC by agar plate dilution method, E. coli NIHJ JC-2. The data set is classed as cell-based. Particulars: Escherichia coli, NIHJJC2, E. coli NIHJ JC-2, inoculum 10^6, 37° C., 18 hours, read-out: minimum inhibitory concentration (MIC). The protocol:
(§3) Test method: The MIC was measured by an agar plate dilution method in accordance with a standard method of Japan Chemotherapeutic Society (cf. Nippon Kagaku Ryoho Gakkaishi, 29(1), 76-79, 1981). Thus, the organisms incubated at 37° C. for 18 hours using sensitivity test broth (Nissei) was diluted to 10^6 CFU/ml using the same broth. […] As a control, enoxacin and ofloxacin were used in Tests 1 and 2, respectively.
(§4) The numbers of the inoculated bacteria were 10^6 in all cases and the unit of the MIC was micrograms/ml.

The subject of data set [4] is Proteus mirabilis 181. The data set is described as follows: MIC by agar plate dilution method, Proteus mirabilis 181. The data set is classed as cell-based. The note with it: read-out: minimum inhibitory concentration (MIC). The protocol:
as §3, §4

Data set [5] concerns S. aureus 209-P JC. The data set is described as follows: MIC by agar plate dilution method, S. aureus 209-P JC. Format: cell-based. Particulars: Staphylococcus aureus, S. aureus 209-P JC, inoculum 10^6, 37° C., 18 hours, read-out: minimum inhibitory concentration (MIC). The method, then: as §3, §4
Data set [6] relates to P. aeruginosa E-2. In words: Therapeutic effect on infection in mice, P. aeruginosa E-2. The note with it: Pseudomonas aeruginosa, E2, po, 168 h. The data set is classed as in vivo, ddY-strain male mice. The protocol:
as §1, §2

Data set [7] deals with M. luteus ATCC 9341. The data set is described as follows: MIC by agar plate dilution method, M. luteus ATCC 9341. The data set is classed as cell-based. The note with it: Micrococcus luteus, ATCC9341, inoculum 10^6, 37° C., 18 hours, read-out: minimum inhibitory concentration (MIC). The method, then:
as §3, §4

Data set [8] has as its system B. subtilis ATCC 6633. The data set is described as follows: MIC by agar plate dilution method, B. subtilis ATCC 6633. Format: cell-based. Particulars: Bacillus subtilis, ATCC6633, B. subtilis ATCC 6633, inoculum 10^6, 37° C., 18 hours, read-out: minimum inhibitory concentration (MIC). The method, then: as §3, §4
For data set [9], the system named is P. aeruginosa E-2. The data set is described as follows: MIC by agar plate dilution method, P. aeruginosa E-2. The data set is classed as cell-based. The note with it: Pseudomonas aeruginosa, E2, P. aeruginosa E-2, inoculum 10^6, 37° C., 18 hours, read-out: minimum inhibitory concentration (MIC). The protocol:
as §3, §4

Data set [10] has as its system S. flexneri. The data set is described as follows: MIC by agar plate dilution method, S. flexneri. Format: cell-based. The note with it: Shigella flexneri, 18 hours, read-out: minimum inhibitory concentration (MIC). The method, then: as §3, §4
Data set [11] has as its system S. marcescens IFO 3736. The data set is described as follows: MIC by agar plate dilution method, S. marcescens IFO 3736. The note with it: Serratia marcescens, IFO3736, inoculum 10^6, 37° C., 18 hours, read-out: minimum inhibitory concentration (MIC). Format: cell-based. The method, then: as §3, §4
Data set [12] relates to K. pneumoniae K-1966. The data set is described as follows: MIC by agar plate dilution method, K. pneumoniae K-1966. Format: cell-based. Particulars: Klebsiella pneumoniae, K1966, K. pneumoniae K-1966, inoculum 10^6, 37° C., 18 hours, read-out: minimum inhibitory concentration (MIC). The method, then: as §3, §4
The test system of data set [13] is S. epidermidis. The data set is described as follows: MIC by agar plate dilution method, S. epidermidis. The note with it: Staphylococcus epidermidis, Test 2, inoculum 10^6, 37° C., 18 hours, read-out: minimum inhibitory concentration (MIC). Format: cell-based. The protocol:
as §3, §4

Data set [14] concerns S. aureus Smith. The data set is described as follows: MIC by agar plate dilution method, S. aureus Smith. Particulars: Staphylococcus aureus; Test 1; S. aureus Smith; inoculum 10^6; 37° C., 18 hours; read-out: minimum inhibitory concentration (MIC). The data set is classed as cell-based. The protocol:
as §3, §4

Data set [15] has as its system E. cloacae No. 1. The data set is described as follows: MIC by agar plate dilution method, E. cloacae No. 1. The note with it: Enterobacter cloacae; Test 1; E. cloacae No. 1; inoculum 10^6; 37° C., 18 hours; read-out: minimum inhibitory concentration (MIC). Format: cell-based. The method, then: as §3, §4
The subject of data set [16] is E. coli KC-14. In words: MIC by agar plate dilution method, E. coli KC-14. Format: cell-based. Particulars: Escherichia coli, KC14; Test 1; E. coli KC-14; inoculum 10^6; 37° C., 18 hours; read-out: minimum inhibitory concentration (MIC). The protocol: as §3, §4
The test system of data set [17] is A. calcoaceticus 54. The data set is described as follows: MIC by agar plate dilution method, A. calcoaceticus 54. The data set is classed as cell-based. Particulars: Acinetobacter calcoaceticus; Test 1; A. calcoaceticus 54; inoculum 10^6; 37° C., 18 hours; read-out: minimum inhibitory concentration (MIC). The protocol: as §3, §4
The test system of data set [18] is P. vulgaris HX-19. The data set is described as follows: MIC by agar plate dilution method, P. vulgaris HX-19. Format: cell-based. Particulars: Proteus vulgaris, HX19, Test 1, inoculum 10^6, 37° C., 18 hours, read-out: minimum inhibitory concentration (MIC). The method, then:
as §3, §4

Data set [19] is described as follows: in vivo. The note with it: mouse, oral administration, ddY-strain male mice, 2 weeks.
Description: The result of oral administration to ddY-strain male mice (7 weeks age; body weight ca. 35 g; 3 mice per group) for 2 weeks was given.
The mark [20] stands for this setting: E. coli KC-14, 5.1×10^4 CFU/mouse i.p., drug orally once 2 hours after infection, survival after one week, read-out: ED50.
Where [21] appears, read: P. aeruginosa E-2, 7.5×10^4 CFU/mouse i.p., drug orally once 2 hours after infection, survival after one week, read-out: ED50.

In brackets after ≈: the same amount, converted by molar mass. Like-named read-outs stand apart in the source and are kept apart here.

On to `CC1COc2c(N3CCN(C)CC3)c(F)cc3c(=O)c(C(=O)O)cn1c23` (racemic) [Ofloxacin, ofloxacin, reference compound], for which the “activity against infections caused by Gram positive bacteria and Pseudomonas aeruginosa (chronic)” value in data set [1] was “not active”. The ED50 in data set [2] (setting [20]) amounted to 0.8 mg/kg; in data set [6] (setting [21]) it was 16 mg/kg. Moreover, the MIC amounted to 0.05 µg/mL (≈ 0.138 µM) in data set [3] (Test 2); 0.1 µg/mL (≈ 0.277 µM) in data set [4] (Test 2, Proteus mirabilis 181, inoculum 10^6, 37° C., 18 hours); 0.78 µg/mL (≈ 2.16 µM) in data set [5] (Test 2); 3.13 µg/mL (≈ 8.66 µM) in data set [7] (Test 2, M. luteus ATTC 9341); 0.2 µg/mL (≈ 0.553 µM) in data set [8] (Test 2); 1.56 µg/mL (≈ 4.32 µM) in data set [9] (Test 2). For the same compound, the MIC was 0.1 µg/mL (≈ 0.277 µM) in data set [10] (Test 2, inoculum 10^6, 37° C.); 0.39 µg/mL (≈ 1.08 µM) in data set [11] (Test 2, S. Marcescens IFO 3736); 0.1 µg/mL (≈ 0.277 µM) in [12] (Test 2); 1.56 µg/mL (≈ 4.32 µM) in data set [13].

As to `CCn1cc(C(=O)O)c(=O)c2cc(F)c(N3CCNCC3)nc21` [Enoxacin, enoxacin, reference compound], the MIC came to 0.78 µg/mL (≈ 2.44 µM) in data set [14]; 0.2 µg/mL (≈ 0.624 µM) in [3] (Test 1); 0.78 µg/mL (≈ 2.44 µM) in data set [5] (Test 1); 0.1 µg/mL (≈ 0.312 µM) in data set [15]; 25 µg/mL (≈ 78 µM) in data set [7] (Test 1, M. luteus ATCC 9341); 0.1 µg/mL (≈ 0.312 µM) in data set [16]. Moreover, the MIC in data set [8] (Test 1) was 0.2 µg/mL (≈ 0.624 µM); in data set [9] (Test 1) it was 0.78 µg/mL (≈ 2.44 µM); in data set [10] (Test 1, inoculum 10^6, 37° C.), 0.1 µg/mL (≈ 0.312 µM); in [11] (Test 1, S. marcescens IFO 3736) it was 0.39 µg/mL (≈ 1.22 µM); in data set [12] (Test 1), 0.2 µg/mL (≈ 0.624 µM); in data set [17] it was 1.56 µg/mL (≈ 4.87 µM). For the same compound, in data set [18], the MIC came to 0.05 µg/mL (≈ 0.156 µM). Also, the “activity against infections caused by Gram positive bacteria and Pseudomonas aeruginosa (chronic)” value in data set [1] is given as “not active”. Besides, the median effective dose (ED50) turned out to be 1.8 mg/kg in data set [2] (setting [20]) and 13.1 mg/kg in data set [6] (setting [21]).

`CCOC(=O)c1c2n(c3cc(N4CCN(CC(C)=O)CC4)c(F)cc3c1=O)C(C)S2` (stereo not shown) [Table 2 (5), Ethyl 7-(4-acetonyl-1-piperazinyl)-6-fluoro-1-methyl-4-oxo-4H-(1,3)thiazeto(3,2-a)quinoline-3-carboxylate]: the median lethal dose (LD50) at 336 h in data set [19] is at least 3000 mg/kg.

In data set [19], `CC1Sc2c(C(=O)O)c(=O)c3cc(F)c(N4CCN(C)CC4)cc3n21` (stereo not shown) [Table 1 (2), 6-Fluoro-1-methyl-7-(4-methyl-1-piperazinyl)-4-oxo-4H-(1,3)thiazeto(3,2-a)quinoline-3-carboxylic acid] had a median lethal dose (LD50) at 336 h of at least 3000 mg/kg.

In [19], `CCOC(=O)c1c2n(c3cc(N4CCN(C)C(C)C4)c(F)cc3c1=O)C(C)S2` (stereo not shown) [Table 2 (3), Ethyl 7-(3,4-dimethyl-1-piperazinyl)-6-fluoro-1-methyl-4-oxo-4H-(1,3)thiazeto(3,2-a)quinoline-3-carboxylate] yielded an LD50 at 336 h of at least 3000 mg/kg.

As for `COc1c(N2CCN(C)CC2)c(F)cc2c(=O)c(C(=O)O)c3n(c12)C(C)S3` (stereo not shown) [Table 1 (14), 6-Fluoro-8-methoxy-1-methyl-7-(4-methyl-1-piperazinyl)-4-oxo-4H-(1,3)thiazeto(3,2-a)quinoline-3-carboxylic acid], the MIC is 0.05 µg/mL (≈ 0.127 µM) in data set [3] (Test 2); 0.0125 µg/mL (≈ 0.0318 µM) in [4] (Proteus mirabilis, 181, 18 h); 0.1 µg/mL (≈ 0.254 µM) in data set [5] (Test 2); 0.2 µg/mL (≈ 0.508 µM) in [7] (Test 2, M. luteus ATTC 9341); 0.025 µg/mL (≈ 0.0635 µM) in data set [8] (Test 2); 0.39 µg/mL (≈ 0.991 µM) in data set [9] (Test 2). The MIC turned out to be 0.0125 µg/mL (≈ 0.0318 µM) in data set [10] (Test 2, inoculum 10^6, 37° C.); 0.2 µg/mL (≈ 0.508 µM) in data set [11] (Test 2, S. Marcescens IFO 3736); 0.025 µg/mL (≈ 0.0635 µM) in data set [12] (Test 2); 0.39 µg/mL (≈ 0.991 µM) in data set [13].

Consider `CC1Sc2c(C(=O)O)c(=O)c3cc(F)c(N4CCN(C)CC4)cc3n21.O=S(=O)(O)O` (stereo not shown) [Table 1 (5), 6-Fluoro-1-methyl-7-(4-methyl-1-piperazinyl)-4-oxo-4H-(1,3)thiazeto(3,2-a)quinoline-3-carboxylic acid sulfate], for which the figures for the ED50 in data set [2] and in [6] were 0.5 mg/kg and 4 mg/kg, respectively.

As to `CC(=O)CN1CCN(c2cc3c(cc2F)c(=O)c(C(=O)O)c2n3C(C)S2)CC1` (stereo not shown) [Table 2 (6), 7-(4-Acetonyl-1-piperazinyl)-6-fluoro-1-methyl-4-oxo-4H-(1,3)thiazeto(3,2-a)quinoline-3-carboxylic acid], the ED50 in [2] (setting [20]) is 0.6 mg/kg; in data set [6] (setting [21]), 5 mg/kg.

Broadly, the ED50 is the midpoint of the dose-response relation. Broadly, the LD50 is the dose at which mortality reaches 50%. The low end stands for a more toxic substance, the high end for a less toxic substance.

Values taken from patent US4843070A, “Substituted thiazetoquinoline-3-carboxylic acids and pharmaceutically acceptable salts thereof” (priority 1986, dated 1989).
